Data on 15 molecules can be found in PubChem BioAssay AID226 (DTP/NCI, 2004).

Each structure is given as a SMILES string. “And” between values parts separate entries of the source, which are not always exact repeats. Equal values may be shown once. Inconclusive results and toxic doses are left out.

This assay concerns B6C3F1 mice, intracerebral ependymoblastoma, median survival T/C. The experiment in a line: NCI In Vivo Anticancer Drug Screen. Data for tumor model Ependymoblastoma (intracerebral) in B6C3F1 mice. The note with it: endpoint: median survival time, higher = longer survival. The procedure: The antitumor activity of compounds was measured in mice bearing transplantable tumors. Survival or tumor size were measured and the results are expressed as the measurement made in the treated group (T) divided by the measurement made in the vehicle treated control group (C). The tumor model used in this assay is Ependymoblastoma (intracerebral) in B6C3F1 mice

Where [1] appears, read: dose: 8.0 mg/kg/injection, schedule: Q01DX005 (ip), vehicle: saline with Tween-80.
[2] abbreviates: dose: 8.0 mg/kg/injection, schedule: Q01DX005 (ip), vehicle: saline.
Where [3] appears, read: dose: 16.0 mg/kg/injection, schedule: Q01DX005 (ip), vehicle: saline with Tween-80.
Setting [4] is: dose: 16.0 mg/kg/injection, schedule: Q01DX005 (ip), vehicle: saline.
[5] abbreviates: dose: 32.0 mg/kg/injection, schedule: Q01DX005 (ip), vehicle: saline with Tween-80.
[6] abbreviates: dose: 32.0 mg/kg/injection, schedule: Q01DX005 (ip), vehicle: saline.
[7] abbreviates: dose: 64.0 mg/kg/injection, schedule: Q01DX005 (ip), vehicle: saline with Tween-80.
Setting [8] is: dose: 64.0 mg/kg/injection, schedule: Q01DX005 (ip), vehicle: saline.
[9] abbreviates: dose: 128.0 mg/kg/injection, schedule: Q01DX005 (ip), vehicle: saline with Tween-80.
The mark [10] stands for this setting: dose: 128.0 mg/kg/injection, schedule: Q01DX005 (ip), vehicle: saline.
The mark [11] stands for this setting: dose: 4.0 mg/kg/injection, schedule: Q01DX005 (ip), vehicle: saline with Tween-80.
The mark [12] stands for this setting: dose: 32.0 mg/kg/injection, schedule: Q01DX005 (ip), vehicle: Klucel (hydroxypropylcellulose) (HPC).
The mark [13] stands for this setting: dose: 128.0 mg/kg/injection, schedule: Q01DX005 (ip), vehicle: Klucel (hydroxypropylcellulose) (HPC).
The mark [14] stands for this setting: dose: 6.25 mg/kg/injection, schedule: Q01DX005 (ip), vehicle: saline with Tween-80.
[15] abbreviates: dose: 2.0 mg/kg/injection, schedule: Q01DX005 (ip), vehicle: Klucel (hydroxypropylcellulose) (HPC).

With `O=c1[nH]c(=O)n([C@H]2CCCO2)cc1F`, the T/C is, setting by setting: under setting [1], 98 % of control and 100 % of control; under setting [2], 92 % of control; under setting [3], 93 % of control and 104 % of control; under setting [4], 91 % of control; under setting [5], 106 % of control and 109 % of control; under setting [6], 92 % of control and 96 % of control. For the same molecule, the T/C reads like this: under setting [7], 104 % of control and 105 % of control; under setting [8], 93 % of control and 103 % of control; under setting [9], 100 % of control and 119 % of control; under setting [10], 93 % of control and 110 % of control; (dose: 256.0 mg/kg/injection, schedule: Q01DX005 (ip), vehicle: saline with Tween-80) 124 % of control.
Consider `C1CCC2C[N-]CCC2C1.C1CCC2C[N-]CCC2C1.C1CCC2C[N-]CCC2C1.C1CCC2C[N-]CCC2C1.[Cl][Rh][Cl]` (centres undefined), for which the T/C was 102 % of control (dose: 2.0 mg/kg/injection, schedule: Q01DX005 (ip), vehicle: dextrose) and 117 % of control (dose: 4.0 mg/kg/injection, schedule: Q01DX005 (ip), vehicle: dextrose).
Consider `CC(=O)OCC1C(=O)OCC1C(=O)N1Cc2cc3ccccc3nc2C1` (centres undefined), for which the T/C under setting [11] is 99 % of control; the T/C under setting [1] was 103 % of control and 104 % of control; the T/C under setting [3] was 104 % of control; the T/C under setting [5] was 104 % of control; the T/C under setting [7] was 90 % of control and 101 % of control; the T/C under setting [9] is 90 % of control.
Consider `O=c1[nH]c(=O)n(C2CC(O)C(CO)O2)cc1C(F)(F)F` (centres undefined), for which the T/C is 102 % of control under setting [12] and 97 % of control under setting [13].
Turning to `C[n+]1c2ccccc2nc2c(N)cc(N)cc21`, the T/C was 100 % of control and 101 % of control (dose: 4.0 mg/kg/injection, schedule: Q01DX005 (ip), vehicle: saline); 101 % of control and 102 % of control under setting [2]; 103 % of control and 108 % of control under setting [4]; 103 % of control and 114 % of control under setting [6].
As for `CN(C)/N=N/c1nc[nH]c1C(N)=O`, the T/C is, setting by setting: (dose: 3.12 mg/kg/injection, schedule: Q01DX005 (ip), vehicle: saline with Tween-80) 120 % of control; under setting [14], 114 % of control; (dose: 12.5 mg/kg/injection, schedule: Q01DX005 (ip), vehicle: Klucel (hydroxypropylcellulose) (HPC)) 115 % of control; under setting [3], 111 % of control; (dose: 25.0 mg/kg/injection, schedule: Q01DX005 (ip), vehicle: Klucel (hydroxypropylcellulose) (HPC)) 114 % of control; (dose: 50.0 mg/kg/injection, schedule: Q01DX005 (ip), vehicle: Klucel (hydroxypropylcellulose) (HPC)) 120 % of control. Besides, the T/C is, setting by setting: (dose: 100.0 mg/kg/injection, schedule: Q01DX005 (ip), vehicle: saline with Tween-80) 156 % of control; under setting [9], 155 % of control.
For the molecule `O=NN(CCCl)C(=O)NC1CCCN(Cc2ccccc2)C1` (centres undefined), the T/C was 178 % of control (dose: 50.0 mg/kg/injection, schedule: Q01DX001 (ip), vehicle: distilled water + Tween-80) and 223 % of control (dose: 100.0 mg/kg/injection, schedule: Q01DX001 (ip), vehicle: distilled water + Tween-80).
As for `Cc1ncc(CNC(=O)N(CCCl)N=O)c(N)n1`, the T/C is 108 % of control and 121 % of control (dose: 8.0 mg/kg/injection, schedule: Q01DX001 (ip), vehicle: water); 175 % of control (dose: 16.0 mg/kg/injection, schedule: Q01DX001 (ip), vehicle: water); 262 % of control and 267 % of control (dose: 32.0 mg/kg/injection, schedule: Q01DX001 (ip), vehicle: water).
As for `NC(CO)(CO)CO`, the T/C is 98 % of control (dose: 200.0 mg/kg/injection, schedule: Q01DX005 (ip), vehicle: saline); 110 % of control (dose: 400.0 mg/kg/injection, schedule: Q01DX005 (ip), vehicle: saline); 105 % of control (dose: 800.0 mg/kg/injection, schedule: Q01DX005 (ip), vehicle: saline); 110 % of control (dose: 1600.0 mg/kg/injection, schedule: Q01DX005 (ip), vehicle: saline).
Turning to `O=NN(CCCl)C(=O)NC1CCN(Cc2ccccc2)CC1`, the T/C is, setting by setting: (dose: 12.5 mg/kg/injection, schedule: Q01DX001 (ip), vehicle: water) 124 % of control; (dose: 50.0 mg/kg/injection, schedule: Q01DX001 (ip), vehicle: water) 160 % of control; (dose: 100.0 mg/kg/injection, schedule: Q01DX001 (ip), vehicle: water) 242 % of control.
As for `CN(Cc1cnc2nc(N)nc(N)c2n1)c1c(Cl)cc(C(=O)NC(CCC(=O)O)C(=O)O)cc1Cl` (centres undefined), the T/C reads like this: under setting [3], 95 % of control and 114 % of control; under setting [4], 100 % of control; under setting [12], 100 % of control; under setting [5], 97 % of control and 107 % of control; under setting [6], 92 % of control and 103 % of control; (dose: 64.0 mg/kg/injection, schedule: Q01DX005 (ip), vehicle: Klucel (hydroxypropylcellulose) (HPC)) 104 % of control. Moreover, the T/C under setting [7] is 100 % of control and 107 % of control; the T/C under setting [8] is 101 % of control and 104 % of control; the T/C under setting [13] was 89 % of control; the T/C under setting [9] was 98 % of control and 100 % of control; the T/C under setting [10] was 100 % of control and 106 % of control; the T/C (dose: 256.0 mg/kg/injection, schedule: Q01DX005 (ip), vehicle: Klucel (hydroxypropylcellulose) (HPC)) was 96 % of control.
In the case of `O=NN(CCCl)C(=O)NC1[C@H](O)CCC[C@@H]1O` (some centres undefined), the T/C (dose: 2.59 mg/kg/injection, schedule: Q01DX005 (ip), vehicle: Klucel (hydroxypropylcellulose) (HPC)) was 236 % of control; the T/C (dose: 4.32 mg/kg/injection, schedule: Q01DX001 (ip), vehicle: saline) was 115 % of control; the T/C (dose: 4.32 mg/kg/injection, schedule: Q01DX005 (ip), vehicle: Klucel (hydroxypropylcellulose) (HPC)) is 357 % of control; the T/C (dose: 4.32 mg/kg/injection, schedule: Q01DX005 (ip), vehicle: saline) was 281 % of control; the T/C (dose: 7.2 mg/kg/injection, schedule: Q01DX005 (ip), vehicle: Klucel (hydroxypropylcellulose) (HPC)) was 357 % of control; the T/C (dose: 7.2 mg/kg/injection, schedule: Q01DX005 (ip), vehicle: saline) was 281 % of control. Further, the T/C was 163 % of control (dose: 12.0 mg/kg/injection, schedule: Q01DX001 (ip), vehicle: saline); 88 % of control (dose: 12.0 mg/kg/injection, schedule: Q01DX005 (ip), vehicle: Klucel (hydroxypropylcellulose) (HPC)); 218 % of control (dose: 20.0 mg/kg/injection, schedule: Q01DX001 (ip), vehicle: saline).
As for `COc1ccc(CC2C(=O)NC(C)C(=O)N(C)C3C(=O)N(C)C(Cc4ccc(O)c(c4)Oc4ccc(cc4)C3O)C(=O)NC(C)C(=O)NC(C)C(=O)N2C)cc1` (centres undefined), the T/C reads like this: (dose: 0.25 mg/kg/injection, schedule: Q01DX005 (ip), vehicle: Klucel (hydroxypropylcellulose) (HPC)) 103 % of control; (dose: 0.25 mg/kg/injection, schedule: Q01DX005 (ip), vehicle: saline with Tween-80) 105 % of control; (dose: 0.5 mg/kg/injection, schedule: Q01DX005 (ip), vehicle: Klucel (hydroxypropylcellulose) (HPC)) 107 % of control; (dose: 0.5 mg/kg/injection, schedule: Q01DX005 (ip), vehicle: saline with Tween-80) 114 % of control; (dose: 1.0 mg/kg/injection, schedule: Q01DX005 (ip), vehicle: Klucel (hydroxypropylcellulose) (HPC)) 106 % of control; (dose: 1.0 mg/kg/injection, schedule: Q01DX005 (ip), vehicle: saline with Tween-80) 113 % of control. Moreover, the T/C by setting is: under setting [15], 96 % of control; (dose: 2.0 mg/kg/injection, schedule: Q01DX005 (ip), vehicle: saline with Tween-80) 114 % of control; under setting [11], 97 % of control.
As to `COC12C(COC(N)=O)C3=C(C(=O)C(C)=C(N)C3=O)N1CC1C2N1C` (centres undefined), the T/C reads like this: under setting [15], 105 % of control and 110 % of control; (dose: 4.0 mg/kg/injection, schedule: Q01DX005 (ip), vehicle: Klucel (hydroxypropylcellulose) (HPC)) 112 % of control and 114 % of control.
With `CC(C)c1cc(C(=O)O)c(O)c(C(C)C)c1.CC(C)c1cc(C(=O)O)c(O)c(C(C)C)c1.[Cu]`, the T/C was 103 % of control under setting [14] and 103 % of control (dose: 12.5 mg/kg/injection, schedule: Q01DX005 (ip), vehicle: saline with Tween-80).
